Reference: US8039504B2 (priority 2003, dated 2011)
Read-outs that look alike come from different tables or passages of the source.

Key:
Assay in all cases: microbe, parasite or virus in culture
Assay type in all cases: cell-based
wild type cowpox virus = conditions: read-out: Cowpox EC50
Vaccinia virus (NYCBH) = conditions: Orthopoxvirus vaccinia, Vero, 72 h
camelpox = conditions: read-out: Camelpox EC50
[1] = test system: monkeypox virus (Zaire (V79-1-005-scab)); conditions: read-out: Monkeypox EC50
[2] = read-out: EC50 of reference standards in vaccinia CPE assay

SMILES	EC50 (wild type cowpox virus) [nM]	EC50 (Vaccinia virus (NYCBH); read-out: Vaccinia EC50) [nM]	EC50 (Vaccinia virus (NYCBH); [2]) [nM]	EC50 (camelpox) [nM]	EC50 [1] [nM]
N#Cc1ccc(C(=O)NN2C(=O)[C@@H]3C4C=CC(C5CC54)[C@@H]3C2=O)cc1 (some centres unmarked) [Example 20, 4-Cyano-N-(3,3a,4,4a,5,5a,6,6a,- octahydro-1,3-dioxo-4,6-ethenocycloprop[f]isoindol-2(1H)-yl)-benzamide]	< 500	< 500	–	–	–
O=C(NN1C(=O)[C@@H]2C3C=CC(C4CC43)[C@@H]2C1=O)c1cccc(F)c1 (some centres unmarked) [Example 14, 3-Fluoro-N-(3,3a,4,4a,5,5a,6,6a,- octahydro-1,3-dioxo-4,6-ethenocycloprop[f]isoindol-2(1H)-yl)-benzamide]	1000 to 5000	< 500	–	–	–
O=C(O)CP(=O)(O)O [PAA, phosphonoacetic acid, reference compound]	–	–	985000 ± 85000	–	–
O=C(NN1C(=O)[C@@H]2C3C=CC(C4CC43)[C@@H]2C1=O)c1ccc(Cl)cc1 (some centres unmarked) [Example 8, 4-Chloro-N-(3,3a,4,4a,5,5a,6,6a,- octahydro-1,3-dioxo-4,6-ethenocycloprop[f]isoindol-2(1H)-yl)-benzamide]	500 to 1000	< 500	–	–	–
O=C(NN1C(=O)[C@@H]2C3CCC(CC3)[C@@H]2C1=O)c1ccc(C(F)(F)F)cc1 [Example 29, 4-Trifluoromethyl-N-bicyclo [2.2.2]octane-2,3-dicarboximido-benzamide]	< 500	< 500	–	–	–
Nc1ccn(C[C@@H](CO)OCP(=O)(O)O)c(=O)n1 [CDV, (S)-1-(3-hydroxy-2-phosphonylmethoxypropyl)cytosine, reference compound]	–	–	84000 ± 15000	–	–
O=C(NN1C(=O)C2CCCCC2C1=O)c1ccc(Br)cc1 (centres unmarked) [Example 17, 4-Bromo-N-(octahydro-1,3-dioxo-2H-isoindol-2-yl)-benzamide]	1000 to 5000	< 500	–	–	–
O=C(NN1C(=O)[C@@H]2C3C=CC(C4CC43)[C@@H]2C1=O)c1ccc(Br)cc1 (some centres unmarked) [Example 3, 4-Bromo-N-(3,3a,4,4a,5,5a,6,6a,- octahydro-1,3-dioxo-4,6-ethenocycloprop[f]isoindol-2(1H)-yl)-benzamide]	500 to 1000	< 500	–	< 500	< 500
O=C(NN1C(=O)[C@@H]2C3CCC(CC3)[C@@H]2C1=O)c1ccc(Br)cc1 [Example 19, 4-Bromo-N-bicyclo[2.2.2]octane-2,3-dicarboximido-benzamide]	< 500	< 500	–	–	–
O=C(NN1C(=O)[C@@H]2C3C=CC(CC3)[C@@H]2C1=O)c1ccc(C(F)(F)F)cc1 [Example 28, 4-Trifluoromethyl-N-bicylo [2.2.2]oct-5-ene-2,3-dicarboximido-benzamide]	< 500	< 500	–	–	–
O=C(NN1C(=O)[C@@H]2C3CCC([C@H]4C[C@@H]34)[C@@H]2C1=O)c1ccc(C(F)(F)F)cc1 [Example 21, 4-Trifluoromethyl-N-(3,3a,4,4a,5,5a,6,6a,- octahydro-1,3-dioxo-4,6-ethanocycloprop[f]isoindol-2(1H)-yl)-benzamide]	< 500	< 500	–	–	–
O=C(Cc1ccccc1)NN1C(=O)[C@@H]2C3C=CC(C4CC43)[C@@H]2C1=O (some centres unmarked) [Example 25, N-(3,3a,4,4a,5,5a,6,6a,- octahydro-1,3-dioxo-4,6-ethenocycloprop[f]isoindol-2(1H)-yl)-benzeneacetamide]	> 5000	500 to 1000	–	–	–
O=C(NN1C(=O)[C@@H]2C3C=CC(C4CC43)[C@@H]2C1=O)c1ccc([N+](=O)[O-])cc1 (some centres unmarked) [Example 12, 4-Nitro-N-(3,3a,4,4a,5,5a,6,6a,- octahydro-1,3-dioxo-4,6-ethenocycloprop[f]isoindol-2(1H)-yl)-benzamide]	< 500	< 500	–	–	–
O=C(NN1C(=O)[C@@H]2C3C=CC(C4CC43)[C@@H]2C1=O)c1cccnc1 (some centres unmarked) [Example 9, N-(3,3a,4,4a,5,5a,6,6a,- octahydro-1,3-dioxo-4,6-ethenocycloprop[f]isoindol-2(1H)-yl)-3-pyridinecarboxamide]	> 5000	< 500	–	–	–
O=C(NN1C(=O)[C@@H]2C3C=CC(C4CC43)[C@@H]2C1=O)c1ccccc1Cl (some centres unmarked) [Example 7, 2-Chloro-N-(3,3a,4,4a,5,5a,6,6a,- octahydro-1,3-dioxo-4,6-ethenocycloprop[f]isoindol-2(1H)-yl)-benzamide]	–	< 500	–	–	–
O=C1[C@@H]2C3C=CC(C4CC43)[C@@H]2C(=O)N1NC(=O)C12CC3CC(CC(C3)C1)C2 (some centres unmarked) [Example 24, N-(3,3a,4,4a,5,5a,6,6a,- octahydro-1,3-dioxo-4,6-ethenocycloprop[f]isoindol-2(1H)-yl)-tricyclo[3.3.1.13.7] decane-1-carboxamide]	500 to 1000	< 500	–	< 500	< 500
O=C(NN1C(=O)[C@@H]2C3C=CC(C4CC43)[C@@H]2C1=O)c1ccccc1Br (some centres unmarked) [Example 6, 2-Bromo-N-(3,3a,4,4a,5,5a,6,6a,- octahydro-1,3-dioxo-4,6-ethenocycloprop[f]isoindol-2(1H)-yl)-benzamide]	> 5000	500 to 1000	–	–	–
O=C(NN1C(=O)[C@@H]2C3C=CC(C4CC43)[C@@H]2C1=O)c1ccc(F)cc1 (some centres unmarked) [Example 13, 4-Fluoro-N-(3,3a,4,4a,5,5a,6,6a,- octahydro-1,3-dioxo-4,6-ethenocycloprop[f]isoindol-2(1H)-yl)-benzamide]	500 to 1000	< 500	–	–	–
O=C(NN1C(=O)[C@@H]2C3C=CC(C4CC43)[C@@H]2C1=O)c1cccc(Br)c1 (some centres unmarked) [Example 4, 3-Bromo-N-(3,3a,4,4a,5,5a,6,6a,- octahydro-1,3-dioxo-4,6-ethenocycloprop[f]isoindol-2(1H)-yl)-benzamide]	1000 to 5000	< 500	–	–	–
O=C(NN1C(=O)[C@@H]2C3C=CC(C3)[C@@H]2C1=O)c1ccc(Cl)cc1Cl [Example 27, 2,4-Dichloro-N-(1,3,3a,4,7,7a-hexahydro-1,3,-dioxo-4,7-methano-2H-isoindol-2-yl)-benzamide]	–	500 to 1000	–	–	–
COc1ccc(C(=O)NN2C(=O)[C@@H]3C4C=CC(C5CC54)[C@@H]3C2=O)cc1 (some centres unmarked) [Example 11, 4-Methoxy-N-(3,3a,4,4a,5,5a,6,6a,- octahydro-1,3-dioxo-4,6-ethenocycloprop[f]isoindol-2(1H)-yl)-benzamide]	> 5000	1000 to 5000	–	–	–
O=C(NN1C(=O)[C@@H]2C3C=CC([C@@H]2C1=O)C31CC1)c1cccc(Br)c1 [Example 23, 3-Bromo-N-(1′,3,3′a,4′,7,7′a-hexahydro-1′,3′,dioxospiro [cyclopropane-1,8′-[4,7]methano[2H]isoindol]-2′-yl)-benzamide]	–	< 500	–	–	–
O=C(NN1C(=O)[C@@H]2C3C=CC(C4CC43)[C@@H]2C1=O)c1ccccn1 (some centres unmarked) [Example 10, N-(3,3a,4,4a,5,5a,6,6a,- octahydro-1,3-dioxo-4,6-ethenocycloprop[f]isoindol-2(1H)-yl)-2-pyridinecarboxamide]	> 5000	> 5000	–	–	–
O=C(NN1C(=O)[C@@H]2C3C=CC(CC3)[C@@H]2C1=O)c1ccc(Br)cc1 [Example 18, 4-Bromo-N-bicyclo[2.2.2]oct-5-ene-2,3-dicarboximido-benzamide]	< 500	< 500	–	–	–
Cc1ccc(C(=O)NN2C(=O)[C@@H]3C4C=CC(C5CC54)[C@@H]3C2=O)cc1 (some centres unmarked) [Example 22, 4-Methyl-N-(3,3a,4,4a,5,5a,6,6a,- octahydro-1,3-dioxo-4,6-ethanocycloprop[f]isoindol-2(1H)-yl)-benzamide]	1000 to 5000	< 500	–	–	–
O=C(NN1C(=O)[C@@H]2C3C=CC(C3)[C@@H]2C1=O)c1ccc(Br)cc1 [Example 26, 4-Bromo-N-(1,3,3a,4,7,7a-hexahydro-1,3,-dioxo-4,7-methano-2H-isoindol-2-yl)-benzamide]	–	< 500	–	–	–
O=C(NN1C(=O)[C@@H]2C3C=CC(C4CC43)[C@@H]2C1=O)c1ccncc1 (some centres unmarked) [Example 2, N-(3,3a,4,4a,5,5a,6,6a,- octahydro-1,3-dioxo-4,6-ethenocycloprop[f]isoindol-2(1H)-yl)-4-pyridinecarboxamide]	1000 to 5000	< 500	–	< 500	< 500
O=C(NN1C(=O)[C@@H]2C3CCC(C4CC43)[C@@H]2C1=O)c1ccc(Br)cc1 (some centres unmarked) [Example 15, 4-Bromo-N-(3,3a,4,4a,5,5a,6,6a-octahydro-1,3-dioxo-4,6-ethanocycloprop[f]isoindol-2(1H)-yl)-benzamide]	< 500	< 500	–	< 500	< 500
Cc1nc(C)c(C(=O)NN2C(=O)[C@@H]3C4C=CC(C5CC54)[C@@H]3C2=O)s1 (some centres unmarked) [Example 41, 2,4-Dimethyl-N-(3,3a,4,4a,5,5a,6,6a-octahydro-1,3-dioxo-4,6-ethenocycloprop[f]isoindol-2(1H)-yl)-thiazole-5-carboxamide]	1000 to 5000	< 500	–	–	–
O=C(NN1C(=O)[C@@H]2C3C=CC(C4CC43)[C@@H]2C1=O)c1cccc(Cl)c1 (some centres unmarked) [Example 5, 3-Chloro-N-(3,3a,4,4a, 5,5a,6,6a,- octahydro-1,3-dioxo-4,6-ethenocycloprop[f]isoindol-2(1H)-yl)-benzamide]	500 to 1000	500 to 1000	–	–	–
